From patent US20220046923A1, “HERBICIDAL CINNOLINIUM COMPOUNDS” (SYNGENTA CROP PROTECTION AG, priority 2018, published 2022)

Columns and labels:
Test in all cases: Post-emergence efficacy, glasshouse spray test
Format in all cases: in vivo
Lolium perenne (LOLPE) = conditions: Lolium perenne, post-emergence, 312 h, evaluated after 13 days, read-out: Control of weed species LOLPE after post-emergence application (100=total damage to plant; 0=no damage to plant); for pest or weed control at 1000 g/ha: application rate 1000 g/Ha
Procedure, shortened: (§1)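 Efficacy was rated 13 days post-treatment on a 0–100 damage scale. Treatment was a post-emergence spray on plants raised 14 days in soil at 24/16 °C, 14 h photoperiod and 65% humidity.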

[1] = tested on: Digitaria sanguinalis (DIGSA); conditions: Digitaria sanguinalis, post-emergence, 312 h, evaluated after 13 days, read-out: Control of weed species DIGSA after post-emergence application (100=total damage to plant; 0=no damage to plant); for pest or weed control at 1000 g/ha: application rate 1000 g/Ha
Procedure, shortened: as §1

[2] = tested on: Echinochloa crus-galli (ECHCG); conditions: Echinochloa crus-galli, post-emergence, 312 h, evaluated after 13 days, read-out: Control of weed species ECHCG after post-emergence application (100=total damage to plant; 0=no damage to plant); for pest or weed control at 1000 g/ha: application rate 1000 g/Ha
Procedure, shortened: as §1

[3] = tested on: Euphorbia heterophylla (EPHHL); conditions: Euphorbia heterophylla, post-emergence, 312 h, evaluated after 13 days, read-out: Control of weed species EPHHL after post-emergence application (100=total damage to plant; 0=no damage to plant); for pest or weed control at 1000 g/ha: application rate 1000 g/Ha
Procedure, shortened: as §1

[4] = tested on: Ipomoea hederacea (IPOHE); conditions: Ipomoea hederacea, post-emergence, 312 h, evaluated after 13 days, read-out: Control of weed species IPOHE after post-emergence application (100=total damage to plant; 0=no damage to plant); for pest or weed control at 1000 g/ha: application rate 1000 g/Ha
Procedure, shortened: as §1

[5] = tested on: Chenopodium album (CHEAL); conditions: Chenopodium album, post-emergence, 312 h, evaluated after 13 days, read-out: Control of weed species CHEAL after post-emergence application (100=total damage to plant; 0=no damage to plant); for pest or weed control at 1000 g/ha: application rate 1000 g/Ha
Procedure, shortened: as §1

[6] = tested on: Amaranthus palmeri (AMAPA); conditions: Amaranthus palmeri, post-emergence, 312 h, evaluated after 13 days, read-out: Control of weed species AMAPA after post-emergence application (100=total damage to plant; 0=no damage to plant); for pest or weed control at 1000 g/ha: application rate 1000 g/Ha
Procedure, shortened: as §1

Setaria faberi (SETFA) = conditions: Setaria faberi, post-emergence, 312 h, evaluated after 13 days, read-out: Control of weed species SETFA after post-emergence application (100=total damage to plant; 0=no damage to plant); for pest or weed control at 1000 g/ha: application rate 1000 g/Ha
Procedure, shortened: as §1

Eleusine indica (ELEIN) = conditions: Eleusine indica, post-emergence, 312 h, evaluated after 13 days, read-out: Control of weed species ELEIN after post-emergence application (100=total damage to plant; 0=no damage to plant); for pest or weed control at 1000 g/ha: application rate 1000 g/Ha
Procedure, shortened: as §1

SMILES	pest or weed control at 1000 g/ha (Lolium perenne (LOLPE))	pest or weed control at 1000 g/ha [1]	pest or weed control at 1000 g/ha [2]	pest or weed control at 1000 g/ha [3]	pest or weed control at 1000 g/ha [4]	pest or weed control at 1000 g/ha [5]	pest or weed control at 1000 g/ha [6]	pest or weed control at 1000 g/ha (Setaria faberi (SETFA))	pest or weed control at 1000 g/ha (Eleusine indica (ELEIN))	pest or weed control at 500 g/ha (Lolium perenne (LOLPE); application rate 500 g/Ha)	pest or weed control at 500 g/ha ([1]; application rate 500 g/Ha)	pest or weed control at 500 g/ha ([2]; application rate 500 g/Ha)	pest or weed control at 500 g/ha ([3]; application rate 500 g/Ha)	pest or weed control at 500 g/ha ([4]; application rate 500 g/Ha)	pest or weed control at 500 g/ha ([5]; application rate 500 g/Ha)	pest or weed control at 500 g/ha ([6]; application rate 500 g/Ha)	pest or weed control at 500 g/ha (Setaria faberi (SETFA); application rate 500 g/Ha)	pest or weed control at 500 g/ha (Eleusine indica (ELEIN); application rate 500 g/Ha)
O=S(=O)([O-])CC[n+]1ccc2cccc(F)c2n1 [Compound A84]	50%	60%	20%	100%	50%	70%	100%	50%	70%	–	–	–	–	–	–	–	–	–
Cc1ccc2n[n+](CCS(=O)(=O)[O-])ccc2c1 [Compound A32]	30%	70%	80%	90%	70%	90%	90%	60%	90%	–	–	–	–	–	–	–	–	–
Cc1cc2ccccc2n[n+]1CCOS(=O)(=O)[O-] [Compound A75]	20%	70%	30%	40%	30%	90%	100%	30%	80%	–	–	–	–	–	–	–	–	–
COC(=O)c1ccc2n[n+](CCS(=O)(=O)[O-])ccc2c1 [Compound A100]	–	–	–	–	–	–	–	–	–	0%	10%	10%	40%	30%	30%	30%	20%	10%
COC(=O)C[n+]1ccc2cc(C)ccc2n1 [Compound A57]	10%	40%	20%	60%	20%	40%	70%	30%	60%	–	–	–	–	–	–	–	–	–
O=S(=O)([O-])CC[n+]1ccc2c(F)cccc2n1 [Compound A81]	20%	20%	20%	90%	10%	70%	40%	20%	30%	–	–	–	–	–	–	–	–	–
O=S(=O)(O)OCC[n+]1nc2ccccc2cc1Cl [Compound A56]	0%	20%	10%	50%	0%	0%	0%	20%	30%	–	–	–	–	–	–	–	–	–
Cc1cc(C)c2n[n+](CC(=O)[O-])cc(C)c2c1 [Compound A4]	10%	10%	10%	40%	30%	10%	40%	0%	20%	–	–	–	–	–	–	–	–	–
COC(=O)C[n+]1cc(C)c2cccc(C)c2n1 [Compound A7]	20%	0%	10%	20%	10%	30%	30%	10%	20%	–	–	–	–	–	–	–	–	–
